Molecules are shown by their SMILES. Values after ≈ are worked out from the molar mass of the structure shown.

This assay has as its system Helicobacter pylori standard strain ATCC 43526 (NCTC 11916). Briefly: Antibacterial Test 1: MIC against Helicobacter pylori, agar plate dilution method (anaerobic MIC method). The assay is classed as cell-based. Conditions: 72 h, Hp ATCC 43526, agar plate dilution, 37° C., 3 days.
What is called MIC is the lowest concentration found to suppress growth. In turn, `COc1ccc(COc2ccc(C(=O)CSc3ccnc4ccccc34)cc2OC)cc1` [Compound 58, 4-[2-[3-Methoxy-4-(4-methoxybenzyloxy)phenyl]-2-oxoethylthio]quinoline] displayed an MIC of 0.0031 µg/mL (≈ 0.00696 µM).
`CSc1ccc2c(SCc3ccc(N(C)C)c(N(C)C)c3)ccnc2c1` [Compound 41, 4-[3,4-Bis(dimethylamino)benzylthio]-7-methylthioquinoline] registered an MIC of 0.2 µg/mL (≈ 0.521 µM).
For `CSc1ccc2c(SC(C)c3ccc(N(C)C)cc3)ccnc2c1` (stereo not drawn) [Compound 33, 4-[1-(4-Dimethylaminophenyl)ethylthio]-7-methylthio-quinoline] the value was 0.2 µg/mL (≈ 0.564 µM).
With `CSc1ccc2c(SCc3ccc(N(C)C)c(C)c3)ccnc2c1` [Compound 40, 4-(3-Methyl-4-dimethylaminobenzylthio)-7-methylthioquinoline], 0.2 µg/mL (≈ 0.564 µM) was the least that counted as inhibitory (MIC).
Take `CNc1ccc(CSc2ccnc3cc(SC)ccc23)cc1C` [Compound 39, 4-(3-Methyl-4-methylaminobenzylthio)-7-methylthioquinoline]: the MIC came out at 0.1 µg/mL (≈ 0.294 µM).
Consider `CCCCCCOc1ccc(C(=O)CSc2ccnc3ccccc23)c(OC)c1` [Compound 55, 4-[2-[2-Methoxy-4-hexyloxyphenyl]-2-oxoethylthio]-quinoline], for which the MIC worked out at 0.0062 µg/mL (≈ 0.0151 µM).
For `CSc1ccc2c(SCc3ccc(N(CCOC(C)=O)CCOC(C)=O)cc3)ccnc2c1` [Compound 47, 4-[4-[Bis(2-acetoxyethyl)amino]benzylthio]-7-methylthioquinoline] the value was 0.2 µg/mL (≈ 0.413 µM).
For `COc1ccc(C(=O)CSc2ccnc3ccccc23)c(OC)c1` [Compound 6, 4-[2-(2,4-Dimethoxyphenyl)-2-oxoethylthio]quinoline] the value was 0.05 µg/mL (≈ 0.147 µM); for `COc1ccc(C=CC(=O)N2CCN(c3ccc(C(=O)CSc4ccnc5ccccc45)cc3)CC2)cc1` [Compound 53, 4-[2-[4-[4-(4-Methoxycinnamoyl)-1-piperazinyl]phenyl]-2-oxoethylthio]quinoline], 0.025 µg/mL (≈ 0.0477 µM).
`CC(C)CN1CCN(c2ccc(C(=O)CSc3ccnc4ccccc34)cc2)CC1` [Compound 29, 4-[2-[4-(4-Isobutyl-1-piperazinyl)phenyl]-2-oxoethylthio]quinoline] registered an MIC of 0.0008 µg/mL (≈ 0.00191 µM). This MIC is about 31-fold lower than that of the compound before.
For `O=C(CSc1ccnc2ccccc12)c1ccc(NCc2ccccc2)c(Br)c1` [Compound 20, 4-[2-(4-Benzylamino-3-bromophenyl)-2-oxoethylthio]-quinoline] the value was 0.025 µg/mL (≈ 0.0539 µM); for `CSc1ccc2c(SCc3ccc(N(CCO)CCOC(C)=O)cc3)ccnc2c1` [Compound 48, 4-[4-[N-(2-Acetoxyethyl)-2-hydroxyethylamino]benzylthio]-7-methylthioquinoline], 0.1 µg/mL (≈ 0.226 µM); for `Cl.O=C(CSc1ccnc2ccccc12)c1ccc(N2CCNCC2)cc1` [Compound 51, 4-[2-[4-(1-Piperazinyl)phenyl]-2-oxoethylthio]quinoline hydrochloride], 0.2 µg/mL.
The compound `CC(C)(C)OC(=O)N1CCN(c2ccc(C(O)CSc3ccnc4ccccc34)cc2)CC1` (stereo not drawn) [Compound 87, 4-[2-[4-(4-tert-Butoxycarbonyl-1-piperazinyl)phenyl]-2-hydroxyethylthio]quinoline] had an MIC of 0.0008 µg/mL (≈ 0.00172 µM).
For `CC(C)(C)NC(=O)N1CCN(c2ccc(C(=O)CSc3ccnc4ccccc34)cc2)CC1` [Compound 85, 4-[2-[4-[4-(N-tert-Butylcarbamoyl)-1-piperazinyl]phenyl]-2-oxoethylthio]quinoline] the value was 0.0031 µg/mL (≈ 0.0067 µM); for `CC(C)(C)OC(=O)Nc1ccc(CCSc2ccnc3ccccc23)cc1` [Compound 24, 4-[2-(4-tert-Butoxycarbonylaminophenyl)ethylthio]-quinoline], 0.2 µg/mL (≈ 0.526 µM); for `COc1cc(C(=O)CSc2ccnc3ccccc23)cc(OC)c1OC` [Compound 17, 4-(2-(3,4,5-Trimethoxyphenyl)-2-oxoethylthio]quinoline], 0.05 µg/mL (≈ 0.135 µM).
For `COc1ccc2c(SCc3ccc(NCC(C)C)cc3)ccnc2c1` [Compound 35, 4-(4-Isobutylaminobenzylthio)-7-methoxyquinoline] the value was 0.39 µg/mL (≈ 1.11 µM); for `O=C(CSc1ccnc2ccccc12)c1ccc(N2CCN(c3ncccn3)CC2)cc1` [Compound 68, 4-[2-[4-[4-(2-Pyrimidyl)-1-piperazinyl]phenyl]-2-oxoethylthio]quinoline], 0.0016 µg/mL (≈ 0.00362 µM).
Take `CCOC(=O)N1CCN(c2ccc(C(=O)CSc3ccnc4ccccc34)cc2)CC1` [Compound 82, 4-[2-[4-(4-Ethoxycarbonyl-1-piperazinyl)phenyl]-2-oxoethylthio]quinoline]: the MIC turned out to be 0.0008 µg/mL (≈ 0.00184 µM).
For `CSc1ccc2c(SCc3ccc(N4CCOCC4)cc3)ccnc2c1` [Compound 43, 4-(4-Morpholinobenzylthio)-7-methylthioquinoline] the value was 0.1 µg/mL (≈ 0.261 µM).
Compound `CCNc1ccc(CSc2ccnc3cc(SC)ccc23)cc1` [Compound 36, 4-(4-Ethylaminobenzylthio)-7-methylthioquinoline] showed an MIC of 0.1 µg/mL (≈ 0.294 µM).
Compound `C=CCOC(=O)N1CCN(c2ccc(C(=O)CSc3ccnc4ccccc34)cc2)CC1` [Compound 83, 4-[2-[4-(4-Allyloxycarbonyl-1-piperazinyl)phenyl]-2-oxoethylthio]guinoline] showed an MIC of 0.0008 µg/mL (≈ 0.00179 µM).
For `OC(CSc1ccnc2ccccc12)c1ccc2ccccc2c1` (stereo not drawn) [Compound 61, 4-[2-(2-Naphtyl)-2-hydroxyethylthio]quinoline], 0.2 µg/mL (≈ 0.603 µM) was the least that counted as inhibitory (MIC).
Take `CC(C)(C)OC(=O)Nc1ccc(C(=O)CSc2ccnc3ccccc23)cc1` [Compound 30, 4-[2-(4-tert-Butoxycarbonylaminophenyl)-2-oxoethylthio]-quinoline]: the MIC was 0.1 µg/mL (≈ 0.253 µM).
Turning to `COc1ccc(Oc2ccc(C(=O)CSc3ccnc4ccccc34)cc2)cc1` [Compound 15, 4-[2-[4-(4-Methoxyphenoxy)phenyl]-2-oxoethylthio]-quinoline], the MIC stood at 0.1 µg/mL (≈ 0.249 µM).
`CSc1ccc2c(SCc3ccc(N4CCCC4)cc3)ccnc2c1` [Compound 44, 4-[4-(1-Pyrrolidinyl)benzylthio]-7-methylthioquinoline]: it took 0.2 µg/mL (≈ 0.546 µM) to inhibit growth (MIC). Compared with the last compound, the MIC is about 2-fold higher.
In turn, `c1ccc(COc2ccc(CCSc3ccnc4ccccc34)cc2)cc1` [Compound 25, 4-[2-(4-Benzyloxyphenyl)ethylthio]quinoline] came in with an MIC of 0.1 µg/mL (≈ 0.269 µM).
In turn, `CC(C)(C)OC(=O)N1CCCN(c2ccc(C(=O)CSc3ccnc4ccccc34)cc2)CC1` [Compound 76, 4-[2-[4-(4-tert-Butoxycarbonyl-1-homopiperazinyl)phenyl]-2-oxoethylthio]quinoline] showed an MIC of 0.0062 µg/mL (≈ 0.013 µM). Compared with the last compound, the MIC is about 16-fold lower.
`O=C(CSc1ccnc2ccccc12)c1ccc(N2CCN(c3ccc(Br)cc3)CC2)cc1` [Compound 67, 4-[2-[4-[4-(4-Bromophenyl)-1-piperazinyl]phenyl]-2-oxoethylthio]quinoline] had an MIC of 0.0062 µg/mL (≈ 0.012 µM).
Compound `CC(C)(C)OC(=O)N1CCC(c2ccc(C(=O)CSc3ccnc4ccccc34)cc2)CC1` [Compound 75, 4-[2-[4-(1-tert-Butoxycarbonyl-4-piperidinyl)phenyl]-2-oxoethylthio]quinoline] had an MIC of 0.0125 µg/mL (≈ 0.027 µM).
Compound `CCN(CC)C(=S)N1CCN(c2ccc(C(=O)CSc3ccnc4ccccc34)cc2)CC1` [Compound 54, 4-[2-[4-(4-Diethylaminothiocarbonyl-1-piperazinyl)-phenyl]-2-oxoethylthio]quinoline] yielded an MIC of 0.0016 µg/mL (≈ 0.00334 µM).
The value for `COc1ccc(COc2ccc(C(=O)CSc3ccnc4ccccc34)cc2)cc1` [Compound 56, 4-[2-[4-(4-Methoxybenzyloxy)phenyl]-2-oxoethylthio]-quinoline] was 0.0125 µg/mL (≈ 0.0301 µM); that for `CC(C)(C)C(=O)Nc1ccc(C(=O)CSc2ccnc3ccccc23)cc1` [Compound 19, 4-[2-(4-Pivaloylaminophenyl)-2-oxoethylthio]quinoline] was 0.1 µg/mL (≈ 0.264 µM).
`CSc1ccc2c(SCc3ccc(N4CCN(C)CC4)cc3)ccnc2c1` [Compound 46, 4-[4-(4-Methyl-1-piperazinyl)benzylthio]-7-methylthioquinoline] yielded an MIC of 0.1 µg/mL (≈ 0.253 µM).
The value for `CS(=O)(=O)N1CCN(c2ccc(C(=O)CSc3ccnc4ccccc34)cc2)CC1` [Compound 86, 4-[2-[4-(4-Methanesulfonyl-1-piperazinyl)phenyl]-2-oxoethylthio]quinoline] was 0.0031 µg/mL (≈ 0.00702 µM); that for `CC(C)(C)C(=O)N1CC=C(c2ccc(C(=O)CSc3ccnc4ccccc34)cc2)CC1` [Compound 74, 4-[2-[4-(1-Pivaloyl-1,2,5,6-tetrahydropyrid-4-yl)phenyl]-2-oxoethylthio]quinoline] was 0.0008 µg/mL (≈ 0.0018 µM); that for `CC(C)CN(C)CCN(C)c1ccc(CCSc2ccnc3ccccc23)cc1` [Compound 72, 4-[2-[4-[N-[2-(N-Isobutyl-N-methylamino)ethyl]-N-methylamino]phenyl]ethylthio]quinoline] was 0.05 µg/mL (≈ 0.123 µM).
`CSc1ccc2c(SCc3ccc(N4CCCCC4)cc3)ccnc2c1` [Compound 45, 4-(4-Piperidinobenzylthio)-7-methylthioquinoline] had an MIC of 0.2 µg/mL (≈ 0.526 µM). Against the preceding compound, the MIC is about 4-fold higher.
For `CSc1ccc2c(SCc3ccc(NCC(=O)c4ccc5ccccc5c4)cc3)ccnc2c1` [Compound 38, 4-[4-(2-β-Naphtyl-2-oxoethylamino)benzylthio]-7-methylthioquinoline] the value was 0.2 µg/mL (≈ 0.416 µM).
For `CC(C)(C)OC(=O)N1CCN(c2ccc(C(=O)CSc3ccnc4ccc(F)cc34)cc2)CC1` [Compound 73, 4-[2-[4-(4-tert-Butoxycarbonyl-1-piperazinyl)phenyl]-2-oxoethylthio]-6-fluoroquinoline] the value was 0.0062 µg/mL (≈ 0.0129 µM); for `CC(C)(C)OC(=O)N1CCN(CCc2ccc(C(=O)CSc3ccnc4ccccc34)cc2)CC1` [Compound 50, 4-[2-[4-[2-(4-tert-Butoxycarbonyl-1-piperazinyl)ethyl]-phenyl]-2-oxoethylthio]quinoline], 0.05 µg/mL (≈ 0.102 µM); for `O=C(CSc1ccnc2ccccc12)c1ccc(-c2ccccc2)cc1` [Compound 4, 4-[2-(p-Biphenyl)-2-oxoethylthio]quinoline], 0.1 µg/mL (≈ 0.281 µM).
In the case of `CC(C)CN(C)CC(=O)Nc1ccc(CCSc2ccnc3ccccc23)cc1` [Compound 70, 4-[2-[4-[2-(N-Isobutyl-N-methylamino)acetylamino]-phenyl]ethylthio]quinoline], the MIC was 0.05 µg/mL (≈ 0.123 µM).
The compound `CCCCCCCNc1ccc(C(=O)CSc2ccnc3ccccc23)cc1` [Compound 69, 4-[2-[4-(Heptylamino)phenyl]-2-oxoethylthio]quinoline] had an MIC of 0.025 µg/mL (≈ 0.0637 µM).

For the origin of these results see patent US6057447A, “Quinoline sulfide derivatives” (Zenyaku Kogyo Kabushiki Kaisha, priority 1996, dated 2000).
